Test results reported in patent publication US20040234531A1, “Chimeric human leukocyte antigen and epitope-bearing molecules having immunosuppressant activity” (priority 2001, published 2004).

Experiments:
[1] = tested on: lymph node cells from GAD65-immunized HLA-DR4 transgenic mice; test: Proliferation and cytokines of lymph node cells from HLA-DR4 transgenic mice immunized with p271-285 GAD65 peptide; type: cell-based, mouse
Method: (§1) FIG. 9A-C. Potency of human DEF molecules in activating murine specific T cells. (A) Lymph node cells (3×10^5) from HLA-DR4 transgenic mice immunized with p271-285 GAD65 peptide were cultured for five dats in the presence of spleen cells (2×10^5) from naive HLA-DR4 mice and 5, 10 or 15 μg/ml of GAD65 peptide or 0.05, 0.5 or 1 μg/ml of DEF-GAD65. (B) Using the same protocol as for (A), cells from mice immunized withp73-90 proinsulin peptide wee stimulated with the same doses of proinsulin peptide or DEF-Pi. […] The proliferative responses are expressed as Δcpm=specific cpm−background cpm.
(§2) HLA-DR*0401 +/+, Abb −/− mice ([…], Taconic, Germantown, N.Y.) expressthe α1β1 domains of HLA-DR*0401 linked to the α2β2 domains of I-E^d, and at the same time are deficient for endogenous MHC class II (1-A^b, I-E^b) molecules (Abb −/−).
(§3) Groups of five mice were immunized in the footpads with either 100 micrograms of p271-285 GAD65 peptide or p73-90 proinsulin peptide in Complete Freund's Adjuvant (“CFA”). Lymph nodes were harvested ten days later and cells from GAD65-immunized mice were stimulated in vitro with various doses of p271-285 synthetic peptide, DEF-GAD65 or empty DEF molecules. […] The amount of peptide carried by the human DEF molecules was normalized on a molar basis, and the immunopotency determined as described in Casares et al., 1999, 3. […]

[2] = tested on: lymph node cells from proinsulin-immunized HLA-DR4 transgenic mice; test: Proliferation and cytokines of lymph node cells from HLA-DR4 transgenic mice immunized with p73-90 proinsulin peptide; type: cell-based, mouse
Method: as §1, §2, §3

| Substance | EC50 ([1]; cells from GAD65-immunized mice, read-out: Half-maximal proliferation of stimulated cells) [nM] | cytokine production in culture supernatants ([1]; day 5, ELISA) | EC50 ([2]; cells from proinsulin-immunized mice, read-out: Half-maximal proliferation of stimulated cells) [nM] | cytokine production in culture supernatants ([2]; day 5, ELISA) |
| --- | --- | --- | --- | --- |
| GAD65 peptide PRLIAFTSEHSHFSL (SEQ ID NO:10) (listed as Homo sapiens) [p271-285] | 1000 | also secreted IL-10 | – | – |
| proinsulin peptide GAGSLQPLALEGSLQKRG (SEQ ID NO: 43) (listed as Homo sapiens) [p73-90] | – | – | 2500 | secreted IL-2 but not IL-10 |
